Test results: ChEMBL document CHEMBL1671667, “Impact of low-level resistance to fluoroquinolones due to qnrA1 and qnrS1 genes or a gyrA mutation on ciprofloxacin bactericidal activity in a murine model of Escherichia coli urinary tract infection” (Antimicrob Agents Chemother, 2009)
In brackets after ≈: the same amount, converted by molar mass.

Experiments:
in vivo = conditions: CBA, mouse, sc, 2.5 mg/kg
Description: Cmax in immunocompetent CBA mouse infected with Escherichia coli at 2.5 mg/kg, sc administered as single dose after 15 mins by liquid chromatography

Klebsiella pneumoniae = experiment: Antimicrobial activity against qnr-negative Klebsiella pneumoniae C2 harboring qnrA1 gene

Compound: O=C(O)c1cn(C2CC2)c2cc(N3CCNCC3)c(F)cc2c1=O [CIPROFLOXACIN]
- Cmax at 0.25 h (in vivo): 1100 ng/mL
- MIC (Klebsiella pneumoniae): 4 µg/mL (≈ 12.1 µM)
